According to the NIST ThermoML archive (doi:10.1021/je4004417):
Where “and” joins values, the source holds several entries; their conditions need not be identical. Equal entries are not always repeated. Numbers after ± are expanded uncertainties.

Assays:
[1] = refractive index (Na D-line) (dimensionless); conditions: 293.15 K; 101.33 kPa; Liquid; Standard Abbe refractometry
[2] = Liquid, Closed cell (Static) method

Row | refractive index [1] | vapor or sublimation pressure ([2]; 343.15 K) | vapor or sublimation pressure ([2]; 363.15 K) | vapor or sublimation pressure ([2]; 393.15 K) | SMILES
1 | 1.4844 ± 0.0007 | 0.16 ± 0.21 kPa and 0.15 ± 0.21 kPa | 0.49 ± 0.21 kPa | 2.18 ± 0.21 kPa | O=CN1CCOCC1 [N-formylmorpholine]
2 | 1.3748 ± 0.0007 | 105.47 ± 2.2 kPa | 190.95 ± 2.3 kPa | 400.27 ± 2.5 kPa | CCCCCC [hexane]
3 | 1.3877 ± 0.0007 | 40.4 ± 0.31 kPa | 78.59 ± 0.43 kPa | 183.7 ± 2.2 kPa | CCCCCCC [heptane]
